Blank lines part the entries; values can stand above or below the molecule they belong to.
Key:
[1] = target: T1, Peroxisome proliferator-activated receptor gamma (Homo sapiens, UniProt P37231)
T1 sequence (P37231 whole entry): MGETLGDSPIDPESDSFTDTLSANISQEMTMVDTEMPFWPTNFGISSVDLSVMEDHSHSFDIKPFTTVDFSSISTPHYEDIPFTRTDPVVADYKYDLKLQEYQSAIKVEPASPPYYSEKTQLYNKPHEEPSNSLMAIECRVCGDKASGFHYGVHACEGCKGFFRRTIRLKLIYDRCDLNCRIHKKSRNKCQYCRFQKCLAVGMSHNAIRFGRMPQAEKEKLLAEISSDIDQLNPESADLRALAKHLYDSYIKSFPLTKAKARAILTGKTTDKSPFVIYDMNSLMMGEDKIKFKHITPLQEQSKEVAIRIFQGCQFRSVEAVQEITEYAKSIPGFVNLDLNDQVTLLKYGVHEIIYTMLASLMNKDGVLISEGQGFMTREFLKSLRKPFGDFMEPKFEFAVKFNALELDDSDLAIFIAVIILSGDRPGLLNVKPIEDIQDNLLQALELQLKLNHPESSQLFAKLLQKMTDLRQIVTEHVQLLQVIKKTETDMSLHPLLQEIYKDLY
Description: In vitro transactivation using receptor transactivation assay against hPPAR gamma

[2] = species: Mus musculus; test: (§1) Maximum achieved blood glucose reduction relative to vehicle treated control group; assay type: functional
[3] = Clearance after oral administration; assay type: ADME, organism-based; settings: in vivo
[4] = species: Mus musculus; test: Maximum achieved triglycerides reduction relative to vehicle treated control group; assay type: functional
[5] = species: Mus musculus; test: Nonfasting insulin after 7 days treatment in male db/db mice; assay type: functional; settings: 168 h
[6] = Area under blood glucose time curve after OGTT on the 9th day of treatment; assay type: ADME, tissue-based
[7] = species: Mus musculus; test: Nonfasting triglycerides after 7 days treatment in male db/db mice; assay type: functional; settings: 168 h
[8] = Maximum plasma concentration after oral administration at a dose 2.2 mg/kg; assay type: ADME, organism-based; set-up: dose 2.2 mg/kg, route oral
[9] = species: Mus musculus; test: as §1; assay type: functional; remark: listed apart in the source
[10] = in vivo
Description: Volume of distribution during steady state

[11] = Area under plasma concentration time curve after oral administration at a dose 2.2 mg/kg; assay type: ADME, organism-based; set-up: dose 2.2 mg/kg, route oral; settings: in vivo
[12] = species: Mus musculus; test: Maximum achieved insulin reduction relative to vehicle treated control group; assay type: functional
[13] = Oral bioavailability; assay type: ADME, organism-based; settings: eutheria, in vivo
[14] = Oral half life was reported; assay type: ADME, organism-based; settings: in vivo
[15] = species: Mus musculus; test: Nonfasting blood glucose after 7 days treatment in male db/db mice; assay type: functional; settings: 168 h
[16] = target: T2, Peroxisome proliferator-activated receptor alpha (Homo sapiens, UniProt Q07869); test: In vitro transactivation using receptor transactivation assay against hPPAR alpha; assay type: functional
T2 sequence (Q07869 whole entry): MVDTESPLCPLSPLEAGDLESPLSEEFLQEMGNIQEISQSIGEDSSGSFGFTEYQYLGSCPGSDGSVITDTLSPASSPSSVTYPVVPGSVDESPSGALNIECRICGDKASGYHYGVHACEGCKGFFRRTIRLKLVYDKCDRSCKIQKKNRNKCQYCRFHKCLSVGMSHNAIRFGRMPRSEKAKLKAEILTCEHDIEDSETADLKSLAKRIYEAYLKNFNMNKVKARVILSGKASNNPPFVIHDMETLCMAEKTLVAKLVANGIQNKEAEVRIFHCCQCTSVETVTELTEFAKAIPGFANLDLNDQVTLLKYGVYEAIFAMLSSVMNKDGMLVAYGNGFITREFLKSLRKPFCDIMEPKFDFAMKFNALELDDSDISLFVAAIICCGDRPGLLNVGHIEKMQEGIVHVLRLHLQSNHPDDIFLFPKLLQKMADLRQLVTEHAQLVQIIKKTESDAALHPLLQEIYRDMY

[17] = target: T3, Peroxisome proliferator-activated receptor delta (Homo sapiens, UniProt Q03181); test: In vitro transcriptional activation of hPPAR delta; assay type: functional
T3 sequence (Q03181 whole entry): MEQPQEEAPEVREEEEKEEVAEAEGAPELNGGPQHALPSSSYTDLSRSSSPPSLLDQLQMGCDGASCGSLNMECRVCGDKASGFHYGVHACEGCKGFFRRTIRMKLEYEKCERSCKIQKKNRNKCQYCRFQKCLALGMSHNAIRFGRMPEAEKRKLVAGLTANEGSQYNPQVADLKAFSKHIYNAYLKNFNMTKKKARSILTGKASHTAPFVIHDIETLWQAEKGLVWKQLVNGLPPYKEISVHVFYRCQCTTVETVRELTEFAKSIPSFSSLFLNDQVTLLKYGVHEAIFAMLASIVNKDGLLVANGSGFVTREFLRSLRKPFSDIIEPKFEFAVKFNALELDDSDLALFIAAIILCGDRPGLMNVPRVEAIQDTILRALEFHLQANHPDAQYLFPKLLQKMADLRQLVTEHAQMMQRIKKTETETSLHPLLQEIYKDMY

EC50 [1]: 12600 nM
Structure (SMILES): CCOC(Cc1ccc(OCC=C2c3ccccc3CCc3ccccc32)cc1)C(=O)O (stereo unspecified)

Structure (SMILES): CCc1ccc(CCOc2ccc(CC3SC(=O)NC3=O)cc2)nc1 (stereo unspecified) [PIOGLITAZONE]
Max reduction [2]: 53% | CL/F [3]: 1.4 mL/min/kg | Max reduction [4]: 21% | ED50 [5]: 15.1 mg/kg | AUC ED50 [6]: 12.09 mg/kg | ED50 [7]: 26.7 mg/kg | Cmax [8]: 4660 ng/mL | Max reduction [9]: 39% | Vd [10]: 0.22 L/kg | AUC [11]: 29200 ng·h/mL | Max reduction [12]: 54% | bioavailability [13]: 112% | half-life [14]: 3.8 h | ED50 [15]: 2.62 mg/kg

Structure (SMILES): CCO[C@@H](Cc1ccc(OCCn2c3ccc(Br)cc3c3cc(Br)ccc32)cc1)C(=O)O
EC50 [16]: 220 nM | EC50 [1]: 44 nM

Structure (SMILES): CCOC(Cc1ccc(OCCCN2c3ccccc3CCc3ccccc32)cc1)C(=O)O (stereo unspecified)
EC50 [1]: 760 nM

EC50 [16]: 340 nM | EC50 [17]: 2410 nM
Structure (SMILES): CCCCC[C@H](O)/C=C/[C@@H]1[C@H]2C/C(=C\CCCC(=O)O)C[C@H]2C[C@H]1O [CARBACYCLIN]

EC50 [1]: 16700 nM
Structure (SMILES): CCOC(Cc1ccc(OCCC=C2c3ccccc3CCc3ccccc32)cc1)C(=O)O (stereo unspecified)
